# According to US20230181905A1, “Systems, Devices, and Methods for Enhancing the Neuroprotective Effects of Non-Invasive Gamma Stimulation with Pharmacological Agents” (Massachusetts Institute of Technology, priority 2021, published 2023):
# Tests used:
# Format in all cases: in vivo, mouse
# aggrecan = assay: Aggrecan immunohistochemistry around PV interneurons; settings: 5×FAD mice, visual cortex; Plx3397 50 days
# Text: These observations led to examination of the effect of Plx3397 administration on neuronal integrity. […] Indeed, it was observed that Plx3397 administration increased WFA+(Wisteria floribunda agglutinin, a PNN marker) PNN signals (au, 289400000±9384029 versus 213000000±16633300 in controls) (FIG. 22A, 22F), while aggrecan (a component in PNN) signals were […] specifically around PV interneurons in Plx3397 administered 5×FAD mice (12.34±0.4791 versus 7.837±0.3549 in controls) (FIG. 22A, 22G).
# perineuronal nets (WFA) = assay: WFA staining of perineuronal nets; settings: 5×FAD mice
# Text: Perineuronal nets (PNN) of neurons are necessary for neuronal integrity and circuit plasticity. Loss of PNN is shown to occur in AD. […] Therefore, the effect of the treatment on PNN was examined.
# Antibodies: IBA1 (Synaptic Systems, Cat #234 004, dilution-1:500; Wako Chemicals, Cat #019-19741, dilution-1:500), GFAP (Thermo Fisher Scientific, Cat #130300, dilution-1:500), MEF2C (Cell Signaling Technology, Cat #5030T), MAC2 (Cedarlane Labs, Cat #CL8942AP, dilution-1:500), vGAT (Synaptic Systems, Cat #131 013, dilution-1:500), vGLUT (Synaptic Systems, Cat #1135 302, dilution-1:500), NeuN (Synaptic Systems, Cat #266 004, dilution-1:1000), MHC2 (EMD Millipore, Cat #MABF33, dilution-1:500), C1q (Abcam, Cat #ab182451, dilution-1:500), synaptophysin (Sigma, Cat #S5768). The following combination of secondary antibodies were used: (1) Alexa Fluor 488, 594 and 647, (2) Alexa Fluor 555 and 647, (3) Alexa Fluor 594 and 647, or (4) Alexa Fluor 488 and 647. All secondary antibodies were obtained from Invitrogen. Biotinylated Wisteria Floribunda Lectin (Vector Laboratories, Cat #B-1355, dilution-1:500) followed by streptavidin conjugated Alexa Fluor 594 (Thermo Fisher Scientific, Cat #S32356, dilution-1:1000) was used to examine WFA.
# CK-p25 mice = assay: Novel object recognition test in CK-p25 mice
# Procedure: Given the neuroprotective effect of Plx3397+GENUS treatment, whether this treatment also impacted learning and memory was evaluated. Mice were tested in an open field (OF) and assessed for changes in anxiety and activity levels, followed by a novel object recognition (NOR) test of memory. 10-month-1d 5×FAD mice were treated with Plx3397. Following 20 days administration of Plx3397 chow, untreated- and Plx3397 treated 5×FAD mice (which continued PLX administration) were subjected to 30 days of daily GENUS. Mice were tested in OF and NOR during the last week of these treatments. […] Next, CK-p25 mice were treated for 42 days and assessed behavioral performance.
# For OF, mice were introduced into an open field box (dimensions: length=460 mm, width=460 mm and height=400 mm; TSE-Systems) and were tracked using Noldus (Ethovision) for 12 min, with time spent in the center and peripheral area of the arena measured. […] Mouse behavior was monitored for 7 min. Time spent exploring both the familiar and novel objects was recorded using Noldus and computed offline. Percentage of novelty preference index was calculated as follows: time exploring novel object (Nt) divided by total time exploring novel and familiar (Ft) objects and presented in %−{[Nt/Nt+Ft]*100}. […]
structure (smiles),measurement,setting,value
"FC(F)(F)c1ccc(CNc2ccc(Cc3c[nH]c4ncc(Cl)cc34)cn2)cn1 [Plx3397, Pexidartinib]",aggrecan signals around PV interneurons,aggrecan,12.34±0.4791
same,WFA content within the microglia compared to control mice,perineuronal nets (WFA),higher
same,WFA signals,"perineuronal nets (WFA); hippocampus, chronic Plx3397 vs control",increased
same,PNN coverage,perineuronal nets (WFA); visual cortex,increased
same,WFA overall signal intensity,perineuronal nets (WFA); visual cortex,increased
same,WFA signals,perineuronal nets (WFA); visual cortex,130.4±7.178 % of no treatment control
same,WFA+ PNN signals,"perineuronal nets (WFA); visual cortex, Plx3397 50 days",289400000±9384029 au
same,novel object recognition memory in the NOR test,CK-p25 mice; CK-p25 mice treated for 42 days,significantly improved
same,novel object recognition memory in the NOR test (novelty index),"CK-p25 mice; CK-p25 mice, control 54.82±3.70",70.52±2.89
